Results taken from ChEMBL document CHEMBL1135160, “Development of a genetic selection for catalytic antibodies” (Bioorg Med Chem Lett, 2002).

Assays:
[1] = test system: Escherichia coli; test: Concentration required to sustain growth of Escherichia coli HDU-78; 1-10 nM; assay type: functional, organism-based
[2] = Kinetic parameter for rate of conversion to PABA was determined; assay type: ADME

Km [2] [µM] | k cat [2] [s⁻¹] | Compound | Concentration [1] [nM]
 |  | Nc1ccc(C(=O)O)cc1 | 10
150 | 0.000115 | CC(=O)CC(C)(O)CCOC(=O)Nc1ccc(C(=O)O)cc1 (stereo not drawn) | 
